# Experiments:
# SNB-75 (CNS Cancer) = experiment: NCI one dose, SNB-75; type: cell-based, human; conditions: SNB-75, 1.00E-5 Molar one dose
# Experimental: (§1) 3.4. Cell Proliferation Assay
# (§2) Selected compounds were tested on a panel of 60 human cancer cell lines at the National Cancer Institute (NCI), Germantown, MD, USA. The cytotoxicity studies were conducted using a 48 h exposure protocol using the sulfo-rhodamine B assay.
# [1] = system: NCI-H460 (Non-Small Cell Lung Cancer); experiment: NCI one dose, NCI-H460; type: cell-based, human; conditions: NCI-H460, 1.00E-5 Molar one dose
# Experimental: as §1, §2
# OVCAR-3 (Ovarian Cancer) = experiment: NCI one dose, OVCAR-3; type: cell-based, human; conditions: OVCAR-3, 1.00E-5 Molar one dose
# Experimental: as §1, §2
# CAKI-1 (Renal Cancer) = experiment: NCI one dose, CAKI-1; type: cell-based, human; conditions: CAKI-1, 1.00E-5 Molar one dose
# Experimental: as §1, §2
# [2] = target: human farnesyltransferase (FTase) (Homo sapiens, UniProt P49354+P49356); experiment: FTase inhibitory assay (fluorescence, Dansyl-GCVLS); type: biochemical; conditions: for % FTI: inhibition of human FTase at 100 μM of tested compound, mean of two experiments
# Experimental: With 40 new products in hand, the determination of their inhibitory activity on human farnesyl-transferase (FTase) in vitro was first undertaken. Dimethyl sulfoxide (DMSO) was used as the negative control, and Chaetomellic acid A was the positive reference in all assays. At the outset, and in order to select only significant results, products with an inhibitory power greater than 60% at an initial screening concentration of 100 µM were retained for the determination of their IC50 and, therefore, for further discussion. Moreover, given the number of products tested, they are grouped into three subfamilies on the basis of the degree of the sulphur atom oxidation (series of sulfides, series of sulfoxides, and series of sulfones), and the results obtained are grouped in Table 1, Table 2 and Table 3.
# 3.3. FTase Inhibitory Assay
# Assays were realized in 96-well plates, prepared with a Biomek NKMC and a Biomek 3000 from Beckman Coulter, and read on a Wallac Victor fluorimeter from PerkinElmer. Per well, 20 µL of farnesyl pyrophosphate (10 μM) was added to 180 µL of a solution containing 2 µL of varied concentrations of potential inhibitors (dissolved in DMSO) and 178 μL of a solution composed of 10 μL of partially purified recombinant human FTase (15 µg mL^−1) and 1.0 µL of Dansyl-GCVLS peptide (in the following buffer: 5.6 mM DTT, 5.6 mM MgCl2, 12 μM ZnCl2 and 0.2% (w/v) octyl-β-D-glucopyranoside, 52 mM Tris/HCl, pH 7.5). Fluorescence was recorded for 15 min (0.7 s per well, 20 repeats) at 30 °C with an excitation filter at 340 nm and an emission filter of 486 nm. Each measurement was reproduced twice, in duplicate. The kinetic experiments were realized under the same conditions, either with FPP as varied substrate with a constant concentration of Dns-GCVLS of 2.5 μM or with Dns-GCVLS as varied substrate with a constant concentration of FPP of 10 μM. Non-linear regressions were performed using the Excel software.
# [3] = system: NCI/ADR-RES (Ovarian Cancer); experiment: NCI one dose, NCI/ADR-RES; type: cell-based, human; conditions: 1.00E-5 Molar one dose
# Experimental: as §1, §2
# MDA-MB-435 (Melanoma) = experiment: NCI one dose, MDA-MB-435; type: cell-based, human; conditions: MDA-MB-435, 1.00E-5 Molar one dose
# Experimental: as §1, §2
# T-47D (Breast Cancer) = experiment: NCI one dose, T-47D; type: cell-based, human; conditions: 1.00E-5 Molar one dose
# Experimental: as §1, §2
# SN12C (Renal Cancer) = experiment: NCI one dose, SN12C; type: cell-based, human; conditions: 1.00E-5 Molar one dose
# Experimental: as §1, §2
# [4] = system: NCI-H522 non-small cell lung cancer cells; experiment: NCI cell proliferation, NCI-H522; type: cell-based, human; conditions: for inhibition at 10 µM: Homo sapiens, NCI-H522, read-out: % Cancer cell growth Inhibition (NCI-H522); for Growth Percent: NCI-H522, 1.00E-5 Molar one dose
# Experimental: as §1, §2
# [5] = system: MDA-MB-468 breast cancer cells; experiment: NCI one dose, MDA-MB-468; type: cell-based, human; conditions: MDA-MB-468, 1.00E-5 Molar one dose
# Experimental: as §1, §2
# [6] = system: HOP-62 (Non-Small Cell Lung Cancer); experiment: NCI one dose, HOP-62; type: cell-based, human; conditions: HOP-62, 1.00E-5 Molar one dose
# Experimental: as §1, §2
# TK-10 (Renal Cancer) = experiment: NCI one dose, TK-10; type: cell-based, human; conditions: TK-10, 1.00E-5 Molar one dose
# Experimental: as §1, §2
# HCC-2998 (Colon Cancer) = experiment: NCI one dose, HCC-2998; type: cell-based, human; conditions: HCC-2998, 1.00E-5 Molar one dose
# Experimental: as §1, §2
# MCF7 (Breast Cancer) = experiment: NCI one dose, MCF7; type: cell-based, human; conditions: MCF7, 1.00E-5 Molar one dose
# Experimental: as §1, §2
# LOX IMVI (Melanoma) = experiment: NCI one dose, LOX IMVI; type: cell-based, human; conditions: 1.00E-5 Molar one dose
# Experimental: as §1, §2
# SK-OV-3 (Ovarian Cancer) = experiment: NCI one dose, SK-OV-3; type: cell-based, human; conditions: SK-OV-3, 1.00E-5 Molar one dose
# Experimental: as §1, §2
# UACC-257 melanoma cells = experiment: NCI one dose, UACC-257; type: cell-based, human; conditions: UACC-257, 1.00E-5 Molar one dose
# Experimental: as §1, §2
# SW-620 (Colon Cancer) = experiment: NCI one dose, SW-620; type: cell-based, human; conditions: SW-620, 1.00E-5 Molar one dose
# Experimental: as §1, §2
# BT-549 (Breast Cancer) = experiment: NCI one dose, BT-549; type: cell-based, human; conditions: BT-549, 1.00E-5 Molar one dose
# Experimental: as §1, §2
# DU-145 (Prostate Cancer) = experiment: NCI one dose, DU-145; type: cell-based, human; conditions: DU-145, 1.00E-5 Molar one dose
# Experimental: as §1, §2
# UO-31 renal cancer cells = experiment: NCI one dose, UO-31; type: cell-based, human; conditions: UO-31, 1.00E-5 Molar one dose
# Experimental: as §1, §2
# SF-268 (CNS Cancer) = experiment: NCI one dose, SF-268; type: cell-based, human; conditions: SF-268, 1.00E-5 Molar one dose
# Experimental: as §1, §2
# RPMI-8226 (Leukemia) = experiment: NCI one dose, RPMI-8226; type: cell-based, human; conditions: RPMI-8226, 1.00E-5 Molar one dose
# Experimental: as §1, §2
# PC-3 (Prostate Cancer) = experiment: NCI one dose, PC-3; type: cell-based, human; conditions: PC-3, 1.00E-5 Molar one dose
# Experimental: as §1, §2
# SK-MEL-28 (Melanoma) = experiment: NCI one dose, SK-MEL-28; type: cell-based, human; conditions: SK-MEL-28, 1.00E-5 Molar one dose
# Experimental: as §1, §2
structure (smiles),measurement,setting,value
COc1cc(CNC(=O)[C@@H]2CS[C@@]3(C)c4ccccc4C(=O)N23)cc(OC)c1OC [4bJ],Growth Percent,SNB-75 (CNS Cancer),97.50%
same,Growth Percent,[1],105.78%
same,Growth Percent,OVCAR-3 (Ovarian Cancer),112.40%
same,Growth Percent,CAKI-1 (Renal Cancer),89.81%
same,IC50,[2]; human FTase,4.35 µM
same,IC50,[2]; human FTase in vitro,4.35 µM
same,% FTI,[2],74%
same,Growth Percent,[3],101.60%
same,Growth Percent,MDA-MB-435 (Melanoma),104.68%
same,Growth Percent,T-47D (Breast Cancer),87.15%
same,Growth Percent,SN12C (Renal Cancer),91.58%
same,inhibition at 10 µM,[4],31%
same,Growth Percent,[4],68.76%
same,Growth Percent,[5],89.65%
same,Growth Percent,[6],90.09%
same,Growth Percent,TK-10 (Renal Cancer),102.44%
same,Growth Percent,HCC-2998 (Colon Cancer),95.49%
same,Growth Percent,MCF7 (Breast Cancer),93.75%
same,Growth Percent,LOX IMVI (Melanoma),105.04%
same,Growth Percent,SK-OV-3 (Ovarian Cancer),103.62%
same,Growth Percent,UACC-257 melanoma cells,73.76%
same,Growth Percent,SW-620 (Colon Cancer),100.88%
same,Growth Percent,BT-549 (Breast Cancer),107.75%
same,Growth Percent,DU-145 (Prostate Cancer),108.72%
same,Growth Percent,UO-31 renal cancer cells,90.29%
same,Growth Percent,SF-268 (CNS Cancer),101.09%
same,Growth Percent,RPMI-8226 (Leukemia),90.22%
same,Growth Percent,PC-3 (Prostate Cancer),89.97%
same,Growth Percent,SK-MEL-28 (Melanoma),103.28%
COc1cccc(CNC(=O)[C@@H]2CS[C@H]3c4ccccc4C(=O)N23)c1 [4aE],Growth Percent,SNB-75 (CNS Cancer),100.11%
same,Growth Percent,[1],113.41%
same,Growth Percent,OVCAR-3 (Ovarian Cancer),104.00%
same,Growth Percent,CAKI-1 (Renal Cancer),96.42%
same,% FTI,[2],35%
same,Growth Percent,[3],106.48%
same,Growth Percent,MDA-MB-435 (Melanoma),107.01%
same,Growth Percent,T-47D (Breast Cancer),103.32%
same,Growth Percent,SN12C (Renal Cancer),105.19%
same,inhibition at 10 µM,[4],26%
same,Growth Percent,[4],74.09%
same,Growth Percent,[5],106.71%
same,Growth Percent,[6],96.82%
same,Growth Percent,TK-10 (Renal Cancer),89.04%
same,Growth Percent,HCC-2998 (Colon Cancer),98.50%
same,Growth Percent,MCF7 (Breast Cancer),98.52%
same,Growth Percent,LOX IMVI (Melanoma),102.67%
same,Growth Percent,SK-OV-3 (Ovarian Cancer),110.57%
same,Growth Percent,UACC-257 melanoma cells,93.82%
same,Growth Percent,SW-620 (Colon Cancer),108.22%
same,Growth Percent,BT-549 (Breast Cancer),110.89%
same,Growth Percent,DU-145 (Prostate Cancer),104.21%
same,Growth Percent,UO-31 renal cancer cells,97.14%
same,Growth Percent,SF-268 (CNS Cancer),100.53%
same,Growth Percent,RPMI-8226 (Leukemia),101.67%
same,Growth Percent,PC-3 (Prostate Cancer),98.06%
same,Growth Percent,SK-MEL-28 (Melanoma),113.63%
COc1cc(CNC(=O)[C@@H]2CS[C@H]3c4ccccc4C(=O)N23)cc(OC)c1OC [4aJ],Growth Percent,SNB-75 (CNS Cancer),86.61%
same,Growth Percent,OVCAR-3 (Ovarian Cancer),105.82%
same,Growth Percent,CAKI-1 (Renal Cancer),95.05%
same,% FTI,[2],23%
same,Growth Percent,[3],95.00%
same,Growth Percent,MDA-MB-435 (Melanoma),106.49%
same,Growth Percent,SN12C (Renal Cancer),99.01%
same,inhibition at 10 µM,[4],17%
same,Growth Percent,[4],83.00%
same,Growth Percent,[5],91.25%
same,Growth Percent,[6],94.96%
same,Growth Percent,TK-10 (Renal Cancer),103.10%
same,Growth Percent,HCC-2998 (Colon Cancer),113.62%
same,Growth Percent,MCF7 (Breast Cancer),104.04%
same,Growth Percent,LOX IMVI (Melanoma),99.61%
same,Growth Percent,SK-OV-3 (Ovarian Cancer),93.11%
same,Growth Percent,UACC-257 melanoma cells,98.86%
same,Growth Percent,SW-620 (Colon Cancer),104.14%
same,Growth Percent,BT-549 (Breast Cancer),92.77%
same,Growth Percent,DU-145 (Prostate Cancer),113.37%
same,Growth Percent,UO-31 renal cancer cells,84.08%
same,Growth Percent,SF-268 (CNS Cancer),104.63%
same,Growth Percent,RPMI-8226 (Leukemia),95.00%
same,Growth Percent,PC-3 (Prostate Cancer),87.87%
same,Growth Percent,SK-MEL-28 (Melanoma),109.82%
O=C(NCc1ccc(Cl)cc1Cl)[C@@H]1CS[C@H]2c3ccccc3C(=O)N12 [4aH],Growth Percent,SNB-75 (CNS Cancer),89.63%
same,Growth Percent,OVCAR-3 (Ovarian Cancer),107.79%
same,Growth Percent,CAKI-1 (Renal Cancer),101.46%
same,% FTI,[2],52%
same,Growth Percent,[3],92.00%
same,Growth Percent,MDA-MB-435 (Melanoma),100.39%
same,Growth Percent,SN12C (Renal Cancer),98.06%
same,inhibition at 10 µM,[4],27%
same,Growth Percent,[4],72.97%
same,Growth Percent,[5],91.86%
same,Growth Percent,[6],97.52%
same,Growth Percent,TK-10 (Renal Cancer),103.48%
same,Growth Percent,HCC-2998 (Colon Cancer),102.84%
same,Growth Percent,MCF7 (Breast Cancer),94.95%
same,Growth Percent,LOX IMVI (Melanoma),100.51%
same,Growth Percent,SK-OV-3 (Ovarian Cancer),103.37%
same,Growth Percent,UACC-257 melanoma cells,96.52%
same,Growth Percent,SW-620 (Colon Cancer),105.59%
same,Growth Percent,BT-549 (Breast Cancer),97.76%
same,Growth Percent,DU-145 (Prostate Cancer),109.93%
same,Growth Percent,UO-31 renal cancer cells,83.58%
same,Growth Percent,SF-268 (CNS Cancer),98.11%
same,Growth Percent,RPMI-8226 (Leukemia),80.68%
same,Growth Percent,PC-3 (Prostate Cancer),81.35%
same,Growth Percent,SK-MEL-28 (Melanoma),103.04%
